The text below walks through data of paper PMC6973020, “Quinoline‐Conjugated Ruthenacarboranes: Toward Hybrid Drugs with a Dual Mode of Action” (Chemmedchem, 2019).

In one test the test system is B16 mouse melanoma. Put plainly: Crystal violet (CV) cell viability assay, B16. The following applies: 72 h. It is filed as cell-based. From the text:
(§1) Thus, care must be taken when comparing their biological activities with those of our previous studies, even with the same cell line, because the covalent vs. non‐covalent combination of drugs might imply different mechanisms of action in the cell.44 Here, we studied the in vitro activity of ruthenacarborane 3, i. e. free acid, and its 8‐hydroxyquinolyl (4) and 4‐{(7‐chloroquinolin‐4‐yl)oxy}butanol‐1‐yl (5) esters, against a panel of cancer cell lines (B16 mouse melanoma, A375 human skin melanoma, MCF‐7 human breast adenocarcinoma, LN229 human glioblastoma, U251 human glioma). Human fibroblast cell line MRC‐5, murine microglial cell line BV‐2 as well as peritoneal exudate cells (Mph), were chosen as models for non‐malignant cells. […] On the other side, we wanted to assess the reproducibility of the viability data, under either controlled (with BSA) or uncontrolled (without BSA) conditions, in two sets of independent assays. […] Cells were exposed to 3–5 for 72 h, after which cell viability was determined via 3‐(4,5‐dimethylthiazol‐2‐yl)‐2,5‐diphenyltetrazolium bromide (MTT) and crystal violet (CV) assays, in parallel (Table 2). Cisplatin was also tested as reference.
(§2) Preparation of drug solutions. […] Stock solution of cisplatin was prepared in DMF (10 mM) immediately before use. A stock solution of BSA in PBS was prepared at 1.28 mM concentration, and stored at 4 °C in the dark. […] Alternatively, 3 or 4 (DMSO stock solution) were added to the BSA solution in PBS, always with a 10 : 1 molar ratio of BSA to ruthenacarborane. The BSA−ruthenacarborane solutions were incubated 0.5–1 h at room temperature, then diluted with cell culture medium to the desired final concentrations. Final concentrations of 3 and 4 were the same as for the BSA‐free formulation. Final DMSO was 0.02–0.5 vol %.
(§3) Colorimetric assays for cellular viability. […] For counting the number of attached (viable) cells, cells were fixed with 4 % (w/v) paraformaldehyde for 10 min at room temperature, and subsequently stained for 15 min with […] crystal violet (CV) solution. Cells were then washed with tap water, dried in air, and the CV dye was dissolved in 33 % (w/v) acetic acid solution. For the detection of mitochondrial respiration, cells were cultivated in MTT staining solution (0.5 mg mL^−1) for approximately 1 h. The dye was then discarded, and the formed formazan (purple) was dissolved in DMSO. The absorbance was measured with an automated microplate reader at λmax 540 nm, with the reference λmax 670 nm. Untreated cells or cells treated only with BSA (control) were also measured, as reference for BSA‐free and BSA‐containing drug formulations, respectively. […] Cell viability is expressed as percentage (%) relative to control (untreated cultures).58 Experiments were run in three independent replicates. […]

For the next test, the system named is A375 human skin melanoma. Put plainly: MTT cell viability assay, A375. In kind it is cell-based. The note with it: 72 h.
Description: as §1, §2, §3

In test [1] the test system is MCF‐7 human breast adenocarcinoma. Put plainly: MTT cell viability assay, MCF‐7. It is filed as cell-based. The note with it: 72 h.
Description: as §1, §2, §3
For orientation: Tetrazolium dyes change colour on reduction, which living cells bring about.

For test [2], the system named is LN229 human glioblastoma. Description: MTT cell viability assay, LN229. In kind it is cell-based. The note with it: 72 h.
Description: as §1, §2, §3

Test [3] has as its system primary non‐malignant mouse macrophages (Mph). Put plainly: Crystal violet (CV) cell viability assay, peritoneal macrophages (Mph). The following applies: 72 h. In kind it is cell-based.
Description: as §1
(§4) Preparation of drug solutions. […] Stock solution of cisplatin was prepared in DMF (10 mM) immediately before use. A stock solution of BSA in PBS was prepared at 1.28 mM concentration, and stored at 4 °C in the dark. […] Alternatively, 3 or 4 (DMSO stock solution) were added to the BSA solution in PBS, always with a 10 : 1 molar ratio of BSA to ruthenacarborane. […]
(§5) Colorimetric assays for cellular viability. […] The absorbance was measured with an automated microplate reader at λmax 540 nm, with the reference λmax 670 nm. Untreated cells or cells treated only with BSA (control) were also measured, as reference for BSA‐free and BSA‐containing drug formulations, respectively. […] Cell viability is expressed as percentage (%) relative to control (untreated cultures).58 Experiments were run in three independent replicates. […]

For test [4], the system named is U251 and LN229 cell lines. Put plainly: Cell viability assays (MTT, CV), summary for glioma and glioblastoma lines. In kind it is cell-based, human. The following applies: 72 h.
Description: as §1, §4, §5

Test [5] deals with LN229 human glioblastoma. Put plainly: Crystal violet (CV) cell viability assay, LN229. It is filed as cell-based. The following applies: CV assay, 72 h; read-out: IC50 LN229.
Description: as §1, §2
Colorimetric assays for cellular viability. […] For counting the number of attached (viable) cells, cells were fixed with 4 % (w/v) paraformaldehyde for 10 min at room temperature, and subsequently stained for 15 min with […] crystal violet (CV) solution. Cells were then washed with tap water, dried in air, and the CV dye was dissolved in 33 % (w/v) acetic acid solution. For the detection of mitochondrial respiration, cells were cultivated in MTT staining solution (0.5 mg mL^−1) for approximately 1 h. The dye was then discarded, and the formed formazan (purple) was dissolved in DMSO. The absorbance was measured with an automated microplate reader at λmax 540 nm, with the reference λmax 670 nm. Untreated cells or cells treated only with BSA (control) were also measured, as reference for BSA‐free and BSA‐containing drug formulations, respectively. For determination of the role of autophagy specific inhibitors, CQ or 3‐MA, were applied at a concentration of 20 μM and 0.5 mM, respectively, and the cells were stained with CV dye. Cell viability is expressed as percentage (%) relative to control (untreated cultures).58 Experiments were run in three independent replicates. […] Non‐linear regression analyses of the obtained results was done using GraphPad Prism software to calculate IC50 values.
mouse microglial cell line BV‐2 was a kind gift from Dr. Irena Lavrnja, Institute for Biological Research
“Siniša Stanković” (University of Belgrade).

“And” between values parts separate entries of the source, which are not always exact repeats. Equal values may be shown once.

With “closo ‐[3‐(η^6‐p‐Cymene)‐1‐(quinolin‐8‐yl‐acetate)‐3,1,2‐RuC2B9H10] [Compound 4]”, the IC50 in the test with B16 mouse melanoma is 24.5 ± 2.1 µM; with A375 human skin melanoma it was 11.9 ± 1.2 µM; in test [1], 15.9 ± 0.2 µM; in the test on LN229 human glioblastoma [2], 42.4 ± 3.9 µM; in test [3] it was 94 ± 7.7 µM; in test [4] (range over both cell lines, depending on assay and formulation type, read-out: IC50 concentrations against U251 and LN229), 33 to 45 µM. The IC50 in the test with LN229 human glioblastoma [5] stood at 33.4 ± 3.5 µM.

Take “closo‐ [Compound 3, closo‐ [3‐(η^6‐p‐Cymene)‐1‐(CH2COOH)‐3,1,2‐RuC2B9H10]]”: the IC50 was 21.1 ± 2 µM in the test on B16 mouse melanoma; 9.7 ± 1.1 µM with A375 human skin melanoma; 7.7 ± 0.8 µM in test [1]; 80.1 ± 4 µM in the test on LN229 human glioblastoma [2]; 49 µM and 49.1 µM in test [3]; 80 ± 7.7 µM in the test with LN229 human glioblastoma [5]. Further, the “activity against LN229 and U251 (in words)” value in test [4] (concentration range tested up to 100 μM) was “inactive”.
